{"source": "paper PMC7400135", "about": "“3-(5-Nitrofuran-2-yl)prop-2-en-1-one Derivatives, with Potent Antituberculosis Activity, Inhibit A Novel Therapeutic Target, Arylamine N-acetyltransferase, in Mycobacteria” (Antibiotics, 2020)", "data": [{"tested_on": "multidrug-resistant M. tuberculosis Peru isolate", "assay": "microbe, parasite or virus in culture", "format": "cell-based", "conditions": "Mycobacterium tuberculosis, 336 h, read-out: MIC MDR-TB", "units": {"MIC": "µg/mL"}, "values": [{"smiles": "O=C(/C=C/c1ccc([N+](=O)[O-])o1)c1ccc(N2CCOCC2)cc1", "note": "[Compound 1]", "MIC": 0.976}, {"smiles": "O=C(/C=C/c1ccc([N+](=O)[O-])o1)c1ccc(N2CCCCC2)cc1", "note": "[Compound 2]", "MIC": 1.95}, {"smiles": "CCN(CC)c1ccc(C(=O)/C=C/c2ccc([N+](=O)[O-])o2)cc1", "note": "[Compound 3]", "MIC": 0.488}, {"smiles": "CC[C@@H](CO)NCCN[C@@H](CC)CO", "note": "[Ethambutol]", "MIC": 8}, {"smiles": "NNC(=O)c1ccncc1", "note": "[Isoniazid, reference compound]", "MIC": "> 500"}, {"smiles": "CN(Cc1cnc2nc(N)nc(N)c2n1)c1ccc(C(=O)N[C@@H](CCC(=O)O)C(=O)O)cc1", "note": "[Methotrexate, reference compound]", "MIC": 250}, {"smiles": "O=[N+]([O-])c1cn2c(n1)OC[C@@H](OCc1ccc(OC(F)(F)F)cc1)C2", "note": "[Pretomanid]", "MIC": 0.488}, {"smiles": "CO[C@H]1/C=C/O[C@@]2(C)Oc3c(C)c(O)c4c(O)c(c(/C=N/N5CCN(C)CC5)c(O)c4c3C2=O)NC(=O)/C(C)=C\\C=C\\[C@H](C)[C@H](O)[C@@H](C)[C@@H](O)[C@@H](C)[C@H](OC(C)=O)[C@@H]1C", "note": "[Rifampicin]", "MIC": "> 500"}]}]}
